Values quoted from earlier work as cited in US20090099301A1, “MOLECULAR IMPRINTINGS FOR RECOGNITION IN AQUEOUS MEDIA, METHODS FOR PREPARING SAME AND USES THEREOF” (POLYINTELL, priority 2006, published 2009).

Conditions: basic medium (pH 11)

In the case of CC(C)NCC(O)COc1cccc2ccccc12 (stereo not shown) [propranolol], the solubility in water is listed as “insoluble”.
